Paper PMC7156458, “Synthetic biology based construction of biological activity-related library of fungal decalin-containing diterpenoid pyrones” (Nature Communications, 2020)

Molecular target: Aβ42 (Homo sapiens, UniProt P05067)
Assay: Th-T (thioflavin-T) assay of Aβ42 aggregation
Assay type: biochemical
Settings: for Th-T assay plate reading, mean of three wells (Supplementary Fig. 47): source data, Ab alone and No Ab as controls

Aβ42, sequence (P05067 672-713): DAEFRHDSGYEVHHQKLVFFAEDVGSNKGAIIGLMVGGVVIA

CC(C)=CCC/C(C)=C/CC/C(C)=C/CC/C(C)=C/Cc1c(O)c(C)c(C)oc1=O [Compound 2]
Th-T fluorescence, mean of three wells (Aβ42 aggregation time course, reading M117): 2.942 | Th-T fluorescence, mean of three wells (Aβ42 aggregation time course, reading M118): 2.9616 | Th-T fluorescence, mean of three wells (Aβ42 aggregation time course, reading M119): 2.929 | Th-T fluorescence, mean of three wells (Aβ42 aggregation time course, reading M120): 2.963 | Th-T fluorescence, mean of three wells (Aβ42 aggregation time course, reading M121): 2.95 | Th-T fluorescence, mean of three wells (Aβ42 aggregation time course, reading M122): 2.943 | Th-T fluorescence, mean of three wells (Aβ42 aggregation time course, reading M123): 2.95 | Th-T fluorescence, mean of three wells (Aβ42 aggregation time course, reading M124): 2.945 | Th-T fluorescence, mean of three wells (Aβ42 aggregation time course, reading M125): 2.938 | Th-T fluorescence, mean of three wells (Aβ42 aggregation time course, reading M126): 2.934 | Th-T fluorescence, mean of three wells (Aβ42 aggregation time course, reading M127): 2.935 | Th-T fluorescence, mean of three wells (Aβ42 aggregation time course, reading M128): 2.947 | Th-T fluorescence, mean of three wells (Aβ42 aggregation time course, reading M129): 2.9294 | Th-T fluorescence, mean of three wells (Aβ42 aggregation time course, reading M130): 2.914 | Th-T fluorescence, mean of three wells (Aβ42 aggregation time course, reading M131): 2.934 | Th-T fluorescence, mean of three wells (Aβ42 aggregation time course, reading M132): 2.934 | Th-T fluorescence, mean of three wells (Aβ42 aggregation time course, reading M133): 2.945 | Th-T fluorescence, mean of three wells (Aβ42 aggregation time course, reading M134): 2.942 | Th-T fluorescence, mean of three wells (Aβ42 aggregation time course, reading M135): 2.931 | Th-T fluorescence, mean of three wells (Aβ42 aggregation time course, reading M136): 2.912 | Th-T fluorescence, mean of three wells (Supplementary Fig. 47, reading M137): 2.914 | Th-T fluorescence, mean of three wells (Supplementary Fig. 47, reading M138): 2.931 | Th-T fluorescence, mean of three wells (Supplementary Fig. 47, reading M139): 2.919 | Th-T fluorescence, mean of three wells (Supplementary Fig. 47, reading M140): 2.936 | Th-T fluorescence, mean of three wells (Supplementary Fig. 47, reading M141): 2.944 | Th-T fluorescence, mean of three wells (Supplementary Fig. 47, reading M142): 2.9414 | Th-T fluorescence, mean of three wells (Supplementary Fig. 47, reading M143): 2.941 | Th-T fluorescence, mean of three wells (Supplementary Fig. 47, reading M144): 2.932 | Th-T fluorescence, mean of three wells (Supplementary Fig. 47, reading M145): 2.925 | Th-T fluorescence, mean of three wells (Supplementary Fig. 47 source data, measurement M37 of time course): 2.747 | Th-T fluorescence, mean of three wells (Supplementary Fig. 47 source data, measurement M38 of time course): 2.734 | Th-T fluorescence, mean of three wells (Supplementary Fig. 47 source data, measurement M39 of time course): 2.741 | Th-T fluorescence, mean of three wells (Supplementary Fig. 47 source data, measurement M40 of time course): 2.757 | Th-T fluorescence, mean of three wells (Supplementary Fig. 47 source data, measurement M41 of time course): 2.789 | Th-T fluorescence, mean of three wells (Supplementary Fig. 47 source data, measurement M42 of time course): 2.791 | Th-T fluorescence, mean of three wells (Supplementary Fig. 47 source data, measurement M43 of time course): 2.8204 | Th-T fluorescence, mean of three wells (Supplementary Fig. 47 source data, measurement M44 of time course): 2.818 | Th-T fluorescence, mean of three wells (Supplementary Fig. 47 source data, measurement M45 of time course): 2.833 | Th-T fluorescence, mean of three wells (Supplementary Fig. 47 source data, measurement M46 of time course): 2.86 | Th-T fluorescence, mean of three wells (Supplementary Fig. 47 source data, measurement M47 of time course): 2.867 | Th-T fluorescence, mean of three wells (Supplementary Fig. 47 source data, measurement M48 of time course): 2.874 | Th-T fluorescence, mean of three wells (Supplementary Fig. 47 source data, measurement M49 of time course): 2.883 | Th-T fluorescence, mean of three wells (Supplementary Fig. 47 source data, measurement M50 of time course): 2.863 | Th-T fluorescence, mean of three wells (Supplementary Fig. 47 source data, measurement M51 of time course): 2.8662 | Th-T fluorescence, mean of three wells (Supplementary Fig. 47 source data, measurement M52 of time course): 2.876 | Th-T fluorescence, mean of three wells (Supplementary Fig. 47 source data, measurement M53 of time course): 2.889 | Th-T fluorescence, mean of three wells (Supplementary Fig. 47 source data, measurement M54 of time course): 2.875 | Th-T fluorescence, mean of three wells (Supplementary Fig. 47 source data, measurement M55 of time course): 2.914 | Th-T fluorescence, mean of three wells (Supplementary Fig. 47 source data, measurement M56 of time course): 2.914 | Th-T assay plate reading, mean of three wells (Supplementary Fig. 47) (measurement M1): 0.5144 | Th-T assay plate reading, mean of three wells (Supplementary Fig. 47) (measurement M2): 0.4337 | Th-T assay plate reading, mean of three wells (Supplementary Fig. 47) (measurement M3): 0.4376 | Th-T assay plate reading, mean of three wells (Supplementary Fig. 47) (measurement M4): 0.4602 | Th-T assay plate reading, mean of three wells (Supplementary Fig. 47) (measurement M5): 0.5047 | Th-T assay plate reading, mean of three wells (Supplementary Fig. 47) (measurement M6): 0.5652 | Th-T assay plate reading, mean of three wells (Supplementary Fig. 47) (measurement M7): 0.6146 | Th-T assay plate reading, mean of three wells (Supplementary Fig. 47) (measurement M8): 0.6765 | Th-T assay plate reading, mean of three wells (Supplementary Fig. 47) (measurement M9): 0.8275 | Th-T assay plate reading, mean of three wells (Supplementary Fig. 47) (measurement M10): 1.067 | Th-T assay plate reading, mean of three wells (Supplementary Fig. 47) (measurement M11): 1.395 | Th-T assay plate reading, mean of three wells (Supplementary Fig. 47) (measurement M12): 1.75 | Th-T assay plate reading, mean of three wells (Supplementary Fig. 47) (measurement M13): 2.113 | Th-T assay plate reading, mean of three wells (Supplementary Fig. 47) (measurement M14): 2.291 | Th-T assay plate reading, mean of three wells (Supplementary Fig. 47) (measurement M15): 2.38 | Th-T assay plate reading, mean of three wells (Supplementary Fig. 47) (measurement M16): 2.421 | Th-T fluorescence, mean of three wells (reading M17, Supplementary Fig. 47 source data): 2.473 | Th-T fluorescence, mean of three wells (reading M18, Supplementary Fig. 47 source data): 2.4977 | Th-T fluorescence, mean of three wells (reading M19, Supplementary Fig. 47 source data): 2.533 | Th-T fluorescence, mean of three wells (reading M20, Supplementary Fig. 47 source data): 2.556 | Th-T fluorescence, mean of three wells (reading M21, Supplementary Fig. 47 source data): 2.585 | Th-T fluorescence, mean of three wells (reading M22, Supplementary Fig. 47 source data): 2.595 | Th-T fluorescence, mean of three wells (reading M23, Supplementary Fig. 47 source data): 2.641 | Th-T fluorescence, mean of three wells (reading M24, Supplementary Fig. 47 source data): 2.62 | Th-T fluorescence, mean of three wells (reading M25, Supplementary Fig. 47 source data): 2.6309 | Th-T fluorescence, mean of three wells (reading M26, Supplementary Fig. 47 source data): 2.664 | Th-T fluorescence, mean of three wells (reading M27, Supplementary Fig. 47 source data): 2.655 | Th-T fluorescence, mean of three wells (reading M28, Supplementary Fig. 47 source data): 2.667 | Th-T fluorescence, mean of three wells (reading M29, Supplementary Fig. 47 source data): 2.665 | Th-T fluorescence, mean of three wells (reading M30, Supplementary Fig. 47 source data): 2.687 | Th-T fluorescence, mean of three wells (reading M31, Supplementary Fig. 47 source data): 2.687 | Th-T fluorescence, mean of three wells (reading M32, Supplementary Fig. 47 source data): 2.686 | Th-T fluorescence, mean of three wells (reading M33, Supplementary Fig. 47 source data): 2.738 | Th-T fluorescence, mean of three wells (reading M34, Supplementary Fig. 47 source data): 2.752 | Th-T fluorescence, mean of three wells (reading M35, Supplementary Fig. 47 source data): 2.742 | Th-T fluorescence, mean of three wells (reading M36, Supplementary Fig. 47 source data): 2.736 | Th-T fluorescence, mean of three wells (time course, reading M57): 2.932 | Th-T fluorescence, mean of three wells (time course, reading M58): 2.915 | Th-T fluorescence, mean of three wells (time course, reading M59): 2.925 | Th-T fluorescence, mean of three wells (time course, reading M60): 2.927 | Th-T fluorescence, mean of three wells (time course, reading M61): 2.927 | Th-T fluorescence, mean of three wells (time course, reading M62): 2.927 | Th-T fluorescence, mean of three wells (time course, reading M63): 2.935 | Th-T fluorescence, mean of three wells (time course, reading M64): 2.936 | Th-T fluorescence, mean of three wells (time course, reading M65): 2.95 | Th-T fluorescence, mean of three wells (time course, reading M66): 2.938 | Th-T fluorescence, mean of three wells (time course, reading M67): 2.956 | Th-T fluorescence, mean of three wells (time-course reading M97, Supplementary Fig. 47 source data): 2.938 | Th-T fluorescence, mean of three wells (time-course reading M98, Supplementary Fig. 47 source data): 2.952 | Th-T fluorescence, mean of three wells (time-course reading M99, Supplementary Fig. 47 source data): 2.942 | Th-T fluorescence, mean of three wells (time-course reading M100, Supplementary Fig. 47 source data): 2.953 | Th-T fluorescence, mean of three wells (time-course reading M101, Supplementary Fig. 47 source data): 2.966 | Th-T fluorescence, mean of three wells (time-course reading M102, Supplementary Fig. 47 source data): 2.943 | Th-T fluorescence, mean of three wells (time-course reading M103, Supplementary Fig. 47 source data): 2.949 | Th-T fluorescence, mean of three wells (time-course reading M104, Supplementary Fig. 47 source data): 2.951 | Th-T fluorescence, mean of three wells (time-course reading M105, Supplementary Fig. 47 source data): 2.946 | Th-T fluorescence, mean of three wells (time-course reading M106, Supplementary Fig. 47 source data): 2.949 | Th-T fluorescence, mean of three wells (time-course reading M107, Supplementary Fig. 47 source data): 2.931 | Th-T fluorescence, mean of three wells (time-course reading M108, Supplementary Fig. 47 source data): 2.953 | Th-T fluorescence, mean of three wells (time-course reading M109, Supplementary Fig. 47 source data): 2.942 | Th-T fluorescence, mean of three wells (time-course reading M110, Supplementary Fig. 47 source data): 2.939 | Th-T fluorescence, mean of three wells (time-course reading M111, Supplementary Fig. 47 source data): 2.961 | Th-T fluorescence, mean of three wells (time-course reading M112, Supplementary Fig. 47 source data): 2.955 | Th-T fluorescence, mean of three wells (time-course reading M113, Supplementary Fig. 47 source data): 2.9565 | Th-T fluorescence, mean of three wells (time-course reading M114, Supplementary Fig. 47 source data): 2.9516 | Th-T fluorescence, mean of three wells (time-course reading M115, Supplementary Fig. 47 source data): 2.943 | Th-T fluorescence, mean of three wells (time-course reading M116, Supplementary Fig. 47 source data): 2.94
